Measurements from ChEMBL document CHEMBL5034004, “Discovery of M3 Antagonist-PDE4 Inhibitor Dual Pharmacology Molecules for the Treatment of Chronic Obstructive Pulmonary Disease” (J Med Chem, 2021).
≈ marks a conversion by molar mass, not a printed value. Each block holds one molecule with its values, some of them ahead of it.

What was measured:
[1] = tested on: Cavia porcellus; experiment: Bronchodilatory activity in IT dosed Dunkin Hartley guinea pig model assessed as inhibition of acetylcholine-induced bronchoconstriction measured after 1 hr by Konzett-Roessler methodology; format: functional
[2] = target: T1, Muscarinic acetylcholine receptor M3 (Homo sapiens, UniProt P20309); experiment: Displacement of [3H]-N-methyl Scopolamine Chloride from human M3 receptor membranes incubated for 2 hrs by scintillation counting analysis; format: cell membranes, Cell membrane
Target sequence in this assay (P20309 whole entry): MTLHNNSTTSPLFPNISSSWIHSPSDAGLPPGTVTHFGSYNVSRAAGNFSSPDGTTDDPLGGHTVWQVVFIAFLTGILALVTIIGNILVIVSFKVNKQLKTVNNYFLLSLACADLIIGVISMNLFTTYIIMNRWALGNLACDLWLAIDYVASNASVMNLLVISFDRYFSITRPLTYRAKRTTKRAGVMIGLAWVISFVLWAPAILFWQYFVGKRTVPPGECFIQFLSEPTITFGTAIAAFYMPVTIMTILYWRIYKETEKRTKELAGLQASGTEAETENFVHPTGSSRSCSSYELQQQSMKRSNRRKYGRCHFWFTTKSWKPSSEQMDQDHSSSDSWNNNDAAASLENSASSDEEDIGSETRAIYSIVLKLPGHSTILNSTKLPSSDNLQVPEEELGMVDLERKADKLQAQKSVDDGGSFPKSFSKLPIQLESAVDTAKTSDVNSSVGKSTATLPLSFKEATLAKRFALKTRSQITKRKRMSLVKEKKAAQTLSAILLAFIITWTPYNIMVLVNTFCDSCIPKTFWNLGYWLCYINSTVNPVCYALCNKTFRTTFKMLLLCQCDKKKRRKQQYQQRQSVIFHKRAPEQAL

[3] = Antiinflammatory activity in human PBMCs assessed as inhibition of LPS-induced TNF-alpha release measured after 18 hrs by ELISA; format: functional, tissue-based, PBMC; conditions: for IC50: Homo sapiens, PBMC, 18 h; for pIC50: pbmc
[4] = tested on: Cavia porcellus; experiment: Bronchodilatory activity in Dunkin Hartley guinea pig model assessed as inhibition of acetylcholine-induced bronchoconstriction at 3 nmol/kg, IT measured after 1 hr by Konzett-Roessler methodology relative to control; format: functional; conditions: for inhibition in vivo at 0.003 µmol/kg: Cavia porcellus, Dunkin Hartley
[5] = target: Muscarinic acetylcholine receptor M3 (Rattus norvegicus, UniProt P08483); experiment: Antagonist activity at muscarinic M3 receptor in rat trachea assessed as inhibition of carbachol-induced contraction; format: functional, tissue-based
[6] = tested on: Cavia porcellus; experiment: Bronchodilatory activity in Dunkin Hartley guinea pig model assessed as inhibition of acetylcholine-induced bronchoconstriction at 3 nmol/kg, IT measured after 16 hrs by Konzett-Roessler methodology relative to control; format: functional; conditions: for inhibition (INH): 0.003 umol/kg
[7] = target: 3',5'-cyclic-AMP phosphodiesterase 4B (Homo sapiens, UniProt Q07343); experiment: Inhibition of human recombinant PDE4B2 assessed as […] in cAMP level incubated for 2 hrs by LANCE Ultra cAMP TR-FRET assay
[8] = Antagonist activity at muscarinic M3 receptor in guinea pig trachea assessed as inhibition of carbachol-induced contraction; format: tissue-based, Cavia porcellus
[9] = tested on: Cavia porcellus; experiment: Bronchodilatory activity in Dunkin Hartley guinea pig model assessed as inhibition of acetylcholine-induced bronchoconstriction at 30 nmol/kg, IT measured after 16 hrs by Konzett-Roessler methodology relative to control; format: functional
[10] = Toxicity in ferret assessed as nausea-like score at 10 umol/kg, IT observed for 4 hrs (Rvb= 12.83+/-5.10); set-up: species or system Mustela putorius furo; conditions: in vivo, inhaled_or_intranasal, dose 10 µmol/kg
[11] = Toxicity in ferret assessed as induction of emesis at 10 umol/kg, IT measured for 4 hrs; set-up: species or system Mustela putorius furo; conditions: in vivo, inhaled_or_intranasal, dose 10 µmol/kg
[12] = Plasma protein binding in rat assessed as bound fraction at 0.5 to 2 uM measured after 30 mins by HPLC-MS/MS analysis; format: ADME, cell-free; conditions: dose 0.5-2 µM, read-out: PPB (converted)
[13] = Microsomal stability in rat liver microsomes assessed as intrinsic clearance at 1 uM measured up to 60 mins by HPLC-MS/MS analysis; format: ADME, Microsome; conditions: read-out: CLH
[14] = Stability in human plasma assessed as half life at 5 uM measured up to 180 mins by HPLC-MS/MS analysis; format: ADME, cell-free
[15] = Permeability across apical to basolateral side in human Caco2 cells at 10 uM measured after 1 hr by LC-MS/MS analysis; format: ADME, cell-based; conditions: Caco-2
[16] = Plasma protein binding in human assessed as bound fraction at 0.5 to 2 uM measured after 30 mins by HPLC-MS/MS analysis; format: ADME, cell-free; conditions: dose 0.5-2 µM, read-out: PPB (converted)
[17] = Kinetic solubility of compound in PBS at pH 7.4 […] incubated for 2 hrs by LC-UV and LC-MS analysis; format: physicochemical; conditions: read-out: Kinetic_solubility
[18] = Toxicity in ferret assessed as nausea-like score at 1 umol/kg, IT observed for 4 hrs (Rvb= 12.83+/-5.10); set-up: species or system Mustela putorius furo; conditions: in vivo, inhaled_or_intranasal, dose 1 µmol/kg
[19] = Microsomal stability in human liver microsomes assessed as intrinsic clearance at 1 uM measured up to 60 mins by HPLC-MS/MS analysis; format: ADME, Microsome; conditions: read-out: CLH
[20] = Stability in rat plasma assessed as half life at 5 uM measured up to 180 mins by HPLC-MS/MS analysis; format: ADME, cell-free
[21] = tested on: Rattus norvegicus; experiment: Antiinflammatory activity in ovalbumin induced Brown Norway rat airway inflammation model assessed as reduction in eosinophil counts in bronchoalveolar lavage at 1 umol/kg, INH for 3 consecutive days and measured after 24 hrs post last dose; format: functional; set-up: scale not given: the % may be the effect or the level left; conditions: dose 1 µmol/kg; time 3 day
[22] = tested on: Rattus norvegicus; experiment: Antiinflammatory activity in ovalbumin induced Brown Norway rat airway inflammation model assessed as reduction in eosinophil counts in bronchoalveolar lavage administered via inhalation for 3 consecutive days and measured after 24 hrs post last dose; format: functional; conditions: inhaled or nasal
[23] = Toxicity in ferret assessed as induction of emesis at 1 umol/kg, IT measured for 4 hrs; set-up: species or system Mustela putorius furo; conditions: in vivo, inhaled_or_intranasal, dose 1 µmol/kg
[24] = target: T2, Muscarinic acetylcholine receptor M2 (Homo sapiens, UniProt P08172); experiment: Displacement of [3H]-N-methyl Scopolamine Chloride from human M2 receptor membranes incubated for 2 hrs by scintillation counting analysis; format: cell membranes, Cell membrane
T2 sequence (P08172 whole entry): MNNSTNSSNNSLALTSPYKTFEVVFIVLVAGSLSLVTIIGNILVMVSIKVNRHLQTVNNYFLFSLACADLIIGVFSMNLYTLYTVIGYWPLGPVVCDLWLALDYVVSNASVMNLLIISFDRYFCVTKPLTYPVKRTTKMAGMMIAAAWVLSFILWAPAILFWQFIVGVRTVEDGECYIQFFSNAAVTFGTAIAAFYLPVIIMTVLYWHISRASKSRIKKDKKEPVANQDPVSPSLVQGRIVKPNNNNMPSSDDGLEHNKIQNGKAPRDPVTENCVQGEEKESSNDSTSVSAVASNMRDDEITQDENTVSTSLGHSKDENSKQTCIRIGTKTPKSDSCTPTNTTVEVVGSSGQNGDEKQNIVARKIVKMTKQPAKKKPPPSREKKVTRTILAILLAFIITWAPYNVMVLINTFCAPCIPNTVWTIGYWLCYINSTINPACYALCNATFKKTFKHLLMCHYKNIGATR

[25] = target: T1, Muscarinic acetylcholine receptor M3; experiment: Binding affinity to human M3 receptor membranes assessed as association half life by liquid scintillation counting analysis; conditions: Cell membrane, filed as antagonist
Target sequence in this assay (P20309 whole entry, looked up): as the sequence (P20309 whole entry) above

[26] = target: T1, Muscarinic acetylcholine receptor M3; experiment: Binding affinity to human M3 receptor membranes assessed as dissociation half life by liquid scintillation counting analysis; conditions: Cell membrane, filed as antagonist
Target sequence in this assay (P20309 whole entry, looked up): as the sequence (P20309 whole entry) above

[27] = tested on: Cavia porcellus; experiment: Bronchodilatory activity in Dunkin Hartley guinea pig model assessed as inhibition of acetylcholine-induced bronchoconstriction at 30 nmol/kg, IT measured after 1 hrs by Konzett-Roessler methodology relative to control; format: functional
[28] = tested on: Cavia porcellus; experiment: Bronchodilatory activity in Dunkin Hartley guinea pig model assessed as inhibition of acetylcholine-induced bronchoconstriction at 10 nmol/kg, IT measured after 1 hr by Konzett-Roessler methodology relative to control; format: functional
[29] = Cavia porcellus, Dunkin Hartley, read-out: ED50
[30] = Cavia porcellus, Dunkin Hartley, 1 h, read-out: ED50

Muscarinic acetylcholine receptor M3 (Rattus norvegicus, UniProt P08483), sequence (P08483 whole entry): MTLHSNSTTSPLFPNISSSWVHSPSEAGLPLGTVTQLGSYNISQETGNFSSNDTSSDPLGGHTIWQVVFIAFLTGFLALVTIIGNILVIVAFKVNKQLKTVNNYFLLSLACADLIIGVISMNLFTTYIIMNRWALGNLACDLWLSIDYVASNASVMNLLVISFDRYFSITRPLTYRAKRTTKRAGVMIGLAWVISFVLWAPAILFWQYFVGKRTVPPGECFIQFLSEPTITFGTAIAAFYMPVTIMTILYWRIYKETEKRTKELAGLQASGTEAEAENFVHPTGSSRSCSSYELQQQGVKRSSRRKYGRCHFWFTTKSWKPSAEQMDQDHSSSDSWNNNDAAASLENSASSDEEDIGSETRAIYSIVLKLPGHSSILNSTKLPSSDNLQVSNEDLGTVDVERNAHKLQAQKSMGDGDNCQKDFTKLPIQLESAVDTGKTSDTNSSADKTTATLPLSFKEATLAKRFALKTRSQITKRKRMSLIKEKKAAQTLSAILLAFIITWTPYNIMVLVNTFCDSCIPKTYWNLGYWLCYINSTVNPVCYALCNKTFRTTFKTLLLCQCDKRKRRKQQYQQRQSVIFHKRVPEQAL
3',5'-cyclic-AMP phosphodiesterase 4B, sequence (Q07343 whole entry): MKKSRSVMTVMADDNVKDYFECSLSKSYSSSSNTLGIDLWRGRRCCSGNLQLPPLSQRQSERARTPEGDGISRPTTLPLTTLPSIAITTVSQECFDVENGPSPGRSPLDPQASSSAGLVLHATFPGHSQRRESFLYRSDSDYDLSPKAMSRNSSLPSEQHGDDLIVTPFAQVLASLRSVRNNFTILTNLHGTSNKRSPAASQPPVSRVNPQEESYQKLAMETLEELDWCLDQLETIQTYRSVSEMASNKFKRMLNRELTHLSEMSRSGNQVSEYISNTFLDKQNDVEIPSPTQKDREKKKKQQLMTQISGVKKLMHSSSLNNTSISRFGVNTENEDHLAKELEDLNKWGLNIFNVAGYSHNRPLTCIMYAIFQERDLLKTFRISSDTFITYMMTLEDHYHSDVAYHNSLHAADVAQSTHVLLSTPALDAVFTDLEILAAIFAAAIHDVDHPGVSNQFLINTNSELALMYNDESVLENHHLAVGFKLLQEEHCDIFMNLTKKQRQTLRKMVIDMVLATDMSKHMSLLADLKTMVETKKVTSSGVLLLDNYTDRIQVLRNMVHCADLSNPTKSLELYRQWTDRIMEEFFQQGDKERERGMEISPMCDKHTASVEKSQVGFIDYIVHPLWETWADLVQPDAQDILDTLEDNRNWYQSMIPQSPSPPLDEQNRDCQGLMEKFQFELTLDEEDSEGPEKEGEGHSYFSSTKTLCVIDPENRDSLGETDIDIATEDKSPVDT

SMILES: COc1ccc([C@H](Cc2c(Cl)c[n+]([O-])cc2Cl)OC(=O)c2ccc(CNC(C(=O)O[C@H]3CN4CCC3CC4)c3ccccc3)s2)cc1OC (stereo in doubt; 91a)
ED50 ([1]; 1 h): 0.0016 µmol/kg
Ki [2]: 0.126 nM
IC50 [3]: 3.16 nM
inhibition in vivo at 0.003 µmol/kg ([4]; 1 h): 73%
IC50 [5]: 2 nM
inhibition (INH) [6]: 32%
IC50 [7]: 1.58 nM
pIC50 [8]: 8.9

Ki [2]: 0.126 nM
pIC50 [3]: 8.5
IC50 [5]: 1.58 nM
IC50 [7]: 1.58 nM
SMILES: COc1ccc([C@H](Cc2c(Cl)c[n+]([O-])cc2Cl)OC(=O)c2ccc(CNC(C(=O)O[C@@H]3CCN(C)C3)c3ccccc3)s2)cc1OC (stereo in doubt; 92f)
ED50 [1, 29]: 0.001 µmol/kg
inhibition in vivo at 0.003 µmol/kg [4]: 96%
inhibition in vivo at 0.03 µmol/kg [9]: 41%

SMILES: O=C(Nc1c(Cl)cncc1Cl)c1ccc(OC(F)F)c(OCC2CC2)c1 [ROFLUMILAST]
Activity [10]: 72.5
Activity [11]: Toxic

SMILES: COc1ccc([C@H](Cc2c(Cl)c[n+]([O-])cc2Cl)OC(=O)c2ccc(CNC(C(=O)O[C@H]3CN4CCC3CC4)c3ccccc3)s2)cc1OC (stereo in doubt; 92a) [listing 1 of 2 here]
fraction unbound at 0.5 h, up to 2 µM [12]: 0.086
microsomal CLint at 1 µM [13]: 126 µL/min/mg
ED50 ([1]; 1 h): 0.0007 µmol/kg
Activity [10]: 12.83
Ki [2]: 0.0631 nM
half-life at 5 µM [14]: 0.183 h
Papp A→B at 1 h, 10 µM [15]: 1.6 ×10⁻⁶ cm/s
fraction unbound at 0.5 h, up to 2 µM [16]: 0.07
solubility kinetic at 2 h [17]: 145 µM (≈ 105 µg/mL)
Activity [18]: 30.67
microsomal CLint at 1 µM [19]: 213 µL/min/mg
pIC50 [3]: 8.8
Activity [11]: Non-Toxic
inhibition (INH) ([4]; 0.003 umol/kg, 1 h): 74%
IC50 [5]: 1 nM
half-life at 5 µM [20]: 9 min
Activity [21]: 54%
ED50 [22]: 0.03 µmol/kg
inhibition (INH) [6]: 67%
pIC50 [7]: 8.8
Activity [23]: Non-Toxic
Ki [24]: 0.2 nM
pIC50 [8]: 9

SMILES: C[N+]1(C)[C@@H]2C[C@H](OC(=O)C(O)(c3cccs3)c3cccs3)C[C@H]1[C@@H]1O[C@@H]12
T1/2 [25]: 10.3 h
T1/2 [26]: 22.5 h

Ki [2]: 0.251 nM
pIC50 [3]: 8.6
IC50 [5]: 1.58 nM
IC50 [7]: 0.501 nM
SMILES: COc1ccc([C@H](Cc2c(Cl)c[n+]([O-])cc2Cl)OC(=O)c2ccc(CNC(C(=O)OC3CCN(C)CC3)c3ccccc3)s2)cc1OC (stereo in doubt; 92e)
ED50 [1, 29]: 0.0041 µmol/kg
inhibition in vivo at 0.03 µmol/kg [27]: 75%
inhibition in vivo at 0.03 µmol/kg [9]: 2%

SMILES: COc1ccc([C@H](Cc2c(Cl)c[n+]([O-])cc2Cl)OC(=O)c2ccc(CNC(C(=O)O[C@H]3CN4CCC3CC4)c3ccccc3)s2)cc1OC (stereo in doubt; 92a) [listing 2 of 2 here]
T1/2 [25]: 13.7 h
T1/2 [26]: 29.5 h

SMILES: COc1ccc([C@H](Cc2c(Cl)c[n+]([O-])cc2Cl)OC(=O)c2ccc(CN(C(=O)O[C@H]3CN4CCC3CC4)c3ccccc3F)s2)cc1OC
ED50 [1, 30]: 0.0005 µmol/kg
Ki [2]: 0.126 nM
solubility kinetic at 2 h [17]: 134 µM (≈ 97.9 µg/mL)
IC50 [3]: 1.26 nM
inhibition in vivo at 0.003 µmol/kg ([4]; 1 h): 97%
inhibition in vivo at 0.003 µmol/kg ([6]; Cavia porcellus, Dunkin Hartley): 38%
IC50 [7]: 0.501 nM
pIC50 [8]: 9.1

SMILES: COc1ccc([C@H](Cc2c(Cl)c[n+]([O-])cc2Cl)OC(=O)c2ccc(CN(C(=O)O[C@H]3CN4CCC3CC4)c3ccccn3)s2)cc1OC
Ki [2]: 0.501 nM
inhibition in vivo at 0.01 µmol/kg [28]: 78%
IC50 [3]: 0.501 nM
IC50 [7]: 0.631 nM
pIC50 [8]: 8.7

SMILES: COc1ccc([C@H](Cc2c(Cl)c[n+]([O-])cc2Cl)OC(=O)c2ccc(CN(C(=O)O[C@H]3CN4CCC3CC4)c3ccccc3)s2)cc1OC
ED50 [1, 30]: 0.0016 µmol/kg
Ki [2]: 0.1 nM
IC50 [3]: 0.794 nM
inhibition in vivo at 0.003 µmol/kg ([4]; 1 h): 82%
IC50 [7]: 1 nM
pIC50 [8]: 8.4
